Results on 10 compounds are retold here after patent US6667340B1, “Inhibitors of phosphatidyl myo-inositol cycle” (Arizona Board of Regents on behalf of the University of …, priority 1998, dated 2003).

In data set [1] the test system is HT-29 colon cancer cells. Description: HT-29 colony formation in soft agarose. As to conditions: for IC50: HT-29 colonies in soft agarose, 7 days exposure, mean of 3 determinations ± S.E. It is filed as cell-based, human.
Description: Specifically, anti-tumor activity was assessed by growing HT-29 colon cancer cells colonies in soft agarose which were then exposed to compounds according to the invention for 7 days and the colonies then counted.
For data set [2] the following is noted: administered orally as well as parenterally; cited from earlier work.
The test system of data set [3] is MCF-7 human breast cancer xenografts. Description: in vivo. It is filed as in vivo. The settings on record: for T/C: p<0.05. An excerpt: (§1) Also, the relative ability of D-3-deoxy-PtdIns and OMDPI, when administered i.p. as a daily micellar suspension to inhibit the growth of MCF-7 human breast cancer xenografts in SCID mice, was further evaluated. […] […]. These were the maximum tolerated doses that could be given by these schedules. […].

Data set [4] deals with HT-29 colon cancer cells. As to conditions: as reported earlier (J. Med. Chem. 1995; U.S. Pat. No. 5,227,508); read-out: IC50 for inhibition of colony formation by HT-29 human colon carcinoma cells; cited from earlier work.
Another data set in a line: in vivo. As to conditions: SCID, mouse, in vivo, ip, read-out: maximum tolerated dose. In kind it is in vivo.
Excerpt: as §1

A short description of data set [5]: Preliminary toxicology in BALB/C mice. As to conditions: for Weight Change %: killed 24 hr after last dose. In kind it is in vivo, male BALB/C mice. The method, then: In order to evaluate clinical safety, toxicity tests were conducted by administering DPI or OMDPI to groups of 4 male BALB/C mice daily by i.p. injection for 5 days at the maximum tolerated dose. […] Moreover, there was a 33% decrease in total white blood cell count. It should be noted, however, that this is not sufficient for a cytotoxic drug to be considered myelosuppresive.
As discussed, Table 4 contains the toxicity results obtained with groups of 4 male BALB/C mice, which were administered the compounds daily by i.p. injection for 5 days at the doses shown and killed 24 hr after the last dose. Values are mean±S.E. The p values are shown only where there was a significant difference to control.

Another data set in a line: Aqueous solubility. It is filed as physicochemical. As to conditions: aqueous with cosolvent or surfactant or cyclodextrin; in 0.1% Tween 20, opalescent solution. An excerpt:
Therefore, OMDPI should be readily formulated for intravenous use, should this be determined to be the optimal route for clinical administration.

Another data set concerns HT-29 human colon cancer. Description: Anti-tumor activity against established HT-29 human colon cancer in SCID mice. The settings on record: for T/C % / Tumor volume on day 10: qd 4-7; for Tumor volume on day 10: mean of 8 mice with S.E.
The next data set relates to bovine PI-PLC. Description: In vitro inhibition of bovine PI-PLC. It is filed as biochemical.
Another data set concerns the target PI-3kinase. As to conditions: previously found; cited from earlier work.
A further data set has as its target human Akt (Homo sapiens, UniProt P31749). Description: Inhibition of PDGF-stimulated Akt activation in transfected NIH 3T3 cells. In kind it is cell-based. The settings on record: 6 hours exposure, listed as D-3-deoxy-PtdIns.
Data set [6] deals with T1, bovine brain p110/p85 PI-3-kinase (Bos taurus, UniProt P32871).
T1 construct: from tissue; host or cells: bovine brain
Description: In vitro inhibition of bovine brain p110/p85 PI-3-kinase. In kind it is biochemical. An excerpt:
Schultz et al.; Anticancer Res., 15:1135-1140 (1995)).

Setting [7] is: 100 mg/kg i.p. daily for 5 days.
Where [8] appears, read: 100 mg/kg i.p. daily for 5 days, listed as OMDPI.
Where [9] appears, read: 100 mg/kg i.p. daily for 5 days, listed as deoxy-PtdIns Ether Lipid.
The mark [10] stands for this setting: maximum tolerated dose i.p. daily for 5 days.
The mark [11] stands for this setting: 300 mg/kg i.p. daily for 5 days.

Broadly, the IC50 is the point on the concentration scale where inhibition reaches its midpoint. By T/C is commonly meant the ratio of treated to control. Broadly, the solubility is how much of the substance goes into solution per volume. A lower solubility goes with little dissolved substance.

“And” between values parts separate entries of the source, which are not always exact repeats. Identical values can stand only once. “Also recorded” adds a separate entry of the source. Like-named read-outs stand apart in the source and are kept apart here.

human Akt, sequence (P31749 whole entry): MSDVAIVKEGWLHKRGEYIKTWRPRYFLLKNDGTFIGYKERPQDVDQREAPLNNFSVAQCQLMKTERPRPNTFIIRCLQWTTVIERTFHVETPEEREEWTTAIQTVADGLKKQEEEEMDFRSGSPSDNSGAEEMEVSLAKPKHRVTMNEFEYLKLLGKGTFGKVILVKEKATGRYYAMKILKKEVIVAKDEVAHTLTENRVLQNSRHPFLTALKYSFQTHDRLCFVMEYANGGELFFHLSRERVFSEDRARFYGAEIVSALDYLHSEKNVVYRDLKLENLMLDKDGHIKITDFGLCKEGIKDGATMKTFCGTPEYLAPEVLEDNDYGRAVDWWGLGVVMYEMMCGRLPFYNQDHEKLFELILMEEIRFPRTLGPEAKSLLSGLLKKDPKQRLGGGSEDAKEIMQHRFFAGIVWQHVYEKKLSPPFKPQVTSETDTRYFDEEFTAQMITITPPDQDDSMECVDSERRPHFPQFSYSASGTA
T1 sequence (P32871 whole entry): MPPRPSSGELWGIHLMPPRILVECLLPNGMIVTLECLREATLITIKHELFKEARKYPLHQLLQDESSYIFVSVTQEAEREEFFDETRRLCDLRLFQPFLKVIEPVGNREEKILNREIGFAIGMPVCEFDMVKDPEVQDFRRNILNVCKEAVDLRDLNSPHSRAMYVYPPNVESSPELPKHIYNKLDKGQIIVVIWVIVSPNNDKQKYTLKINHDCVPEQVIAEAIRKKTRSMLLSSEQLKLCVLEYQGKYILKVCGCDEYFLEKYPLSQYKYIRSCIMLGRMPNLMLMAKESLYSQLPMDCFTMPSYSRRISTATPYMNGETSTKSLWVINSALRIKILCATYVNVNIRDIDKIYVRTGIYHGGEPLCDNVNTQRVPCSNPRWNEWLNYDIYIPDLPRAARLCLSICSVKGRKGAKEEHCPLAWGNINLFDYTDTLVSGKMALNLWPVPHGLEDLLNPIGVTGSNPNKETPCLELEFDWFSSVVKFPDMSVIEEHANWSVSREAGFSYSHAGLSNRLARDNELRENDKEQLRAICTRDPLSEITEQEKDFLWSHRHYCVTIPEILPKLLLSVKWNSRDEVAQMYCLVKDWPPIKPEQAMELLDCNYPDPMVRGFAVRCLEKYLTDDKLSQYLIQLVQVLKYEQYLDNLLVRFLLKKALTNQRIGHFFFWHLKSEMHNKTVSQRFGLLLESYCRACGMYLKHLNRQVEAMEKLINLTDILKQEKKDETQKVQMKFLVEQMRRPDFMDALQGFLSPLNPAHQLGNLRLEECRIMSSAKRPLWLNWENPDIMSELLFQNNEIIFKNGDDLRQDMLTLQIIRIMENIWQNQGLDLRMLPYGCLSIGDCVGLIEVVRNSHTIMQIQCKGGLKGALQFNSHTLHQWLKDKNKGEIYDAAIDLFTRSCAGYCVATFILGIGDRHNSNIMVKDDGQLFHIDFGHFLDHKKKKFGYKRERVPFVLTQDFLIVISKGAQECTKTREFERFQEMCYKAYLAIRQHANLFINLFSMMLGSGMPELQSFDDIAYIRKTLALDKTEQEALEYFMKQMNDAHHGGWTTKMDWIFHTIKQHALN
T1 sequence (P23727 whole entry partner): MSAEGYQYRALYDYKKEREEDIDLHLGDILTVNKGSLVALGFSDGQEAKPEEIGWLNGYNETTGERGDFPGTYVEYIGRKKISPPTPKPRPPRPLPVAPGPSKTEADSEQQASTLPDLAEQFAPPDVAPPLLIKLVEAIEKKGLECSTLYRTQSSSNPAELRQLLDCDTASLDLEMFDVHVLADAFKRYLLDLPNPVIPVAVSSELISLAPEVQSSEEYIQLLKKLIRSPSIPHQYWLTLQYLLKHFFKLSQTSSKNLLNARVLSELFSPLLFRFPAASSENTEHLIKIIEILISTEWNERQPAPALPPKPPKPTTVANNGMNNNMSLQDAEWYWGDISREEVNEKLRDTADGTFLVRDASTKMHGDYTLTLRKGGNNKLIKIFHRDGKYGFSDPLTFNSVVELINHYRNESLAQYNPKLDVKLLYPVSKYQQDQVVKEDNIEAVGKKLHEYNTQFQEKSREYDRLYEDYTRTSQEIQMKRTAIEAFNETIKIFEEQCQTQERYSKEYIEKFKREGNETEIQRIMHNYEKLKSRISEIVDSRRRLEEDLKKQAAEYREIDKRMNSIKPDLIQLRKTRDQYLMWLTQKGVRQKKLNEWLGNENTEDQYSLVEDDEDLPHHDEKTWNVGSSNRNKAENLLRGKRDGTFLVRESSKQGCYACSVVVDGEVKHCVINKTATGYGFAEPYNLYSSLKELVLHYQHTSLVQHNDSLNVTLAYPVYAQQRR

On to “3-chloro-3-deoxy-PtdIns [reference compound]”, for which the “growth inhibition at maximum tested concentration” value in the data set on HT-29 colon cancer cells [1] (HT-29 colony formation) was under 20%.

Consider `CCCCCCCCCCCCCCCCCCOCC(CCP(=O)(O)OC1C(O)CC(O)C(O)C1O)OC` [(90), 1-O-[(3S)-methoxy-4-(octadecyloxy)butylphosphonyl]-1D-3-deoxy-myo-inositol], for which half-maximal inhibition in the data set on HT-29 colon cancer cells [1] (Homo sapiens, 168 h) (IC50) required 45 µM.

As to `CCCCCCCCCCCCCCCCOP(=O)([O-])OCC[N+](C)(C)C` [mitelfosine, hexadecylphosphocholine], the clinical anti-tumor activity entry in data set [2] is listed as “have shown clinical anti-tumor activity”.

For the compound `O=P1(N(CCCl)CCCl)NCCCO1` (centres unmarked) [cyclophosphamide, reference compound], in data set [3] (265 mg/kg on day 5, positive control), the “inhibition of the growth of MCF-7 xenografts” value was 43%.

With `CCCCCCCCCCCCCCCC(=O)OCC(COP(=O)(O)OC1C(O)C(O)C(O)C(F)C1O)OC(=O)CCCCCCCCCCCCCCC` (centres unmarked) [(35), 3-Fluoro-3-deoxy-PtdIns, reference compound], the IC50 in the data set on HT-29 colon cancer cells [1] and in the data set on HT-29 colon cancer cells [4] was 37 µM in each case.

For `CCCCCCCCCCCCCCCCCCOCC(COP(=O)(O)OC1C(O)CC(O)C(O)C1O)OC` (centres unmarked) [(60), 1-O-(2-O-methyl-1-O-octadecyl-sn-glycero-3-phospho)-1D-3-deoxy-myo-inositol], the IC50 in the data set with HT-29 colon cancer cells [1] (listed as OMDPI (60)) came to 2.1 ± 0.1 µM. In the data set with HT-29 colon cancer cells [1] (Homo sapiens, HT-29, 168 h), this compound had an IC50 of 2 µM. Moreover, in “in vivo” (daily i.p. for 5 days), the MTD at 5 days amounted to 100 mg/kg. Besides, the MTD at 10 days in “in vivo” (daily i.p. for 10 days) is 75 mg/kg. The same compound yielded a T/C in data set [3] (75 mg/kg i.p. for 10 days) of 20%. In [3] (100 mg/kg i.p. for 5 days), the T/C worked out at 39%. The “inhibition of the growth of MCF-7 breast cancer” value in [3] (4 or 5 day daily i.p. schedule) stood at 60%. Further, the “inhibition of the growth of MCF-7 breast cancer xenografts” value in data set [3] (10 day schedule) was 80%. Also, in data set [5] (setting [7]), the ALT is on record as 32.7, the BUN amounted to 18.7, the “Total Protein” value was determined as 4.9 and the White blood cells came out at 5.8. In [5] (setting [8]), the “Weight Change %” value is on record as “no effect” and the “Platelets × 10^6” value was “no effect”. Besides, in data set [5] (setting [9]), the “Weight Change %” value is “+2.3 ± 1.5%” and the “Platelets × 10^6” value is on record as 0.9 × 10^6. Moreover, in [5] (in words), the “liver, renal toxicity” value is “not liver or renal toxic” and the myelosuppression entry is listed as “only weakly myelosuppresive”. Moreover, in data set [5] (setting [10]), the “decrease in total white blood cell count” value is on record as 33% and the “serum liver or kidney enzymes” value was “did not result in elevation”. In addition, the solubility in the data set “Aqueous solubility” was at least 10000 µg/mL. Further, in the data set on HT-29 human colon cancer (50 mg/kg i.p.), the T/C % was found to be 103.7% and the “Tumor volume on day 10” value amounted to 0.258 ± 0.05 cm^3. In addition, in the data set on HT-29 human colon cancer (100 mg/kg i.p.), the T/C % was 118.0% and the “Tumor volume on day 10” value is 0.32 ± 0.09 cm^3. In the data set with HT-29 human colon cancer (150 mg/kg i.p.), the T/C % was determined as 33.3% and the “Tumor volume on day 10” value came out at 0.09 ± 0.07 cm^3. Further, the “toxicity at the highest dose tested” value with HT-29 human colon cancer (150 mg/kg per day i.p.) is on record as “not toxic”. Further, the “inhibition of tumor growth” value in the data set with HT-29 human colon cancer (150 mg/kg per day, 4 daily i.p. injections) stood at 67%. Further, in the data set on HT-29 human colon cancer (100 and 50 mg/kg per day i.p.), the anti-tumor activity result was “did not elicit anti-tumor activity”.

The compound 2,3-dideoxy-PtdIns showed an IC50 in the data set on HT-29 colon cancer cells [1] of 50 ± 7 µM.

`CCCCCCCCCCCCCCCCCCOC[C@H](COP(=O)(O)OC1C(O)C(O)C(O)C(O)C1O)OC` (some centres unmarked) [1-O-octadecyl-2-O-methyl-sn-glycero-3-phospho-myo-inositol]: in the data set on HT-29 colon cancer cells [1] (in words), the “inhibition of cancer cell growth” value is listed as “only a weak inhibitor”. Also, the “PI-PLC IC50” value with bovine PI-PLC (same assay conditions as Table 2) is given as “poor inhibitor”. For the same compound, the IC50 on PI-3kinase was 90 µM.

In the data set on HT-29 colon cancer cells [1], `CCCCCCCCCCCCCCCC(=O)OCC(COP(=O)(O)OC1C(O)CC(O)C(O)C1O)OC(=O)CCCCCCCCCCCCCCC` (centres unmarked) [(30), 3-deoxy-phosphatidyl-myo-inositol, reference compound] yielded an IC50 of 35 µM. The Akt activation result on human Akt is recorded as “blocks the activation of Akt; also recorded: blocked Akt activation”. The “PtdIns-PLC IC50” value in the data set on bovine PI-PLC is “N/A (N/A = not active, with <20% inhibition at 100 gM.)”. For the same compound, in data set [3] (i.p. daily micellar suspension, dose not given), the T/C came to 62%. Further, in data set [5] (setting [11]), the ALT is 30.5, the BUN is given as 15.7, the “Platelets × 10^6” value is 0.9 × 10^6 and the “Total Protein” value amounted to 4.6. In addition, in data set [5] (setting [11]), the White blood cells was determined as 7.9 and the “Weight Change %” value is recorded as −4.3 ± 1.9%. For the same compound, the IC50 with HT-29 colon cancer cells [4] was 35 µM. Moreover, in the data set with HT-29 human colon cancer (250 mg/kg i.p.), the T/C % was 111.1% and the “Tumor volume on day 10” value was 0.30 ± 0.06 cm^3. Further, the lethality result in the data set with HT-29 human colon cancer (500 mg/kg i.p., qd 4-5) is “lethal”. The anti-tumor activity result in the data set on HT-29 human colon cancer (half of 500 mg/kg daily i.p.) is recorded as “no anti-tumor activity”.

For `CCCCCCCCCCCCCCCC(=O)OCC(CCP(=O)(O)OC1C(O)CC(O)C(O)C1O)OC(=O)CCCCCCCCCCCCCCC` [(50), 1-O-[(3S)-3,4-bis(palmitoyloxy)butylphosphonyl]-1D-3-deoxy-myo-inositol], the “fold increase in growth inhibitory activity compared to DPI” value in the data set on HT-29 colon cancer cells [1] (HT-29 colony formation, versus (30)) was > 3 fold and ~3 fold. This compound also gave an IC50 with HT-29 colon cancer cells [1] (Homo sapiens, 168 h) of 10 µM. In addition, the “PtdIns-PLC IC50” value in the data set on bovine PI-PLC is “N/A (N/A = not active, with <20% inhibition at 100 gM.)”. The “PI-3-K IC50” value in [6] is reported as “N/A (N/A = not active, with <20% inhibition at 100 gM.)”.
